pEC50: −log10 of the molar value.
Key:
[1] = molecular target: T1, human M2 receptor (Homo sapiens, UniProt P08172); experiment: Functional M2-GIRK1/4 activation test: allosteric potency (EC50) and efficiency at EC20 acetylcholine; format: cell-based; conditions: CHO-DUKX-M2-GIRK cells; for pEC50: voltage-sensitive dye, acetylcholine at EC20, in some cases mean of two or more determinations; for Emax / Efficiency: boosting of the acetylcholine effect at EC20 acetylcholine concentration
T1 construct: expressed in transfected cells; host or cells: CHO-DUKX (CHO-DUKX-M2-GIRK)
T1 sequence (P08172 1-466): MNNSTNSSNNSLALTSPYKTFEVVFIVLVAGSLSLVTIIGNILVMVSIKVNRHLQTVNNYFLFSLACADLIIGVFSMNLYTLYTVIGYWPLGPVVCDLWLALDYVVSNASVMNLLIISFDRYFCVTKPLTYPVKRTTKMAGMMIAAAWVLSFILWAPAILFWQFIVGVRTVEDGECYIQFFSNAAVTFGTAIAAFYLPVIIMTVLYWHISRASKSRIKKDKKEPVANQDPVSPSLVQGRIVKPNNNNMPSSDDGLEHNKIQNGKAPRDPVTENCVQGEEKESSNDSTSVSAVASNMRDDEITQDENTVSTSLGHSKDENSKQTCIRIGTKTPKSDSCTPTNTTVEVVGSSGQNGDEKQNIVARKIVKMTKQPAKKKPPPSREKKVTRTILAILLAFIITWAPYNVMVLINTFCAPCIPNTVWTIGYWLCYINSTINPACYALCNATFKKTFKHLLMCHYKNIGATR
Procedure, shortened: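 Positive allosteric modulation measured as boosting of an EC20 acetylcholine response: hyperpolarization via GIRK1/4 in CHO-DUKX-M2-GIRK cells, monitored by membrane-potential dye fluorescence over 60 s after agonist, compound preadded. Hill-function fit gives EC50 and efficiency.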

[2] = molecular target: T1, human M2 receptor; experiment: Functional M2-GIRK1/4 activation test: positive cooperativity (α factor), shift of acetylcholine dose-response curve; format: cell-based; conditions: Allosteric EC50 shift of acetylcholine 8-point dose-response curve; CHO-DUKX-M2-GIRK cells; α>1 = positive cooperativity
Description: The binding of orthosteric agonists (endogenous ligand: acetylcholine) to the M2 receptor leads to receptor activation or a change in conformation of the receptor in the manner of a shift in equilibrium in favour of the active receptor conformation.
The agonist-induced change in conformation of the M2 receptor results in a Gαi protein activation. […] Under physiological conditions, the result is then a selective efflux of potassium from the cell along the electrochemical gradient. […] The extent of hyperpolarization can therefore be regarded as a measure of the activation of the M2 receptor.
The test cell used is a recombinant CHO-DUKX cell line which has been stably transfected with cDNA coding for the human M2 receptor and with cDNA coding for both GIRK1/4 subunits (CHO-DUKX-M2-GIRK). The transmembrane potential, or the relative changes in the transmembrane potential as a function of substance addition or M2 activation, is determined by means of a voltage-sensitive dye (FLIPR Membrane Potential Assay Kit Blue, Molecular Devices #R8034) and the measurement of cell fluorescence using a proprietary fluorescence imaging instrument.
In accordance with the desired test concentrations, the substances were pre-diluted in loading buffer (see above).
The sowing medium consisted of MEM alpha medium (supplemented with 5% PCS, 2% Glutamax, no genticin).
For the particular measurement, the medium was removed and the cells were laden with the volt-age-sensitive dye for at least 6 min at room temperature (30 μl of loading buffer per 384-well). This was followed, in a first measurement, by the determination of the resting transmembrane potential for a period of 5 sec in 1 sec increments. Thereafter, 10 μl in each case of the test substances diluted in loading buffer are added, followed by a second measurement to determine the transmembrane potential for a period of 50 sec in 1 sec increments.
Finally, the cells are admixed with 10 μl of agonist solution (acetylcholine dissolved in loading buffer). In contrast to the EC50 determination of the test substances (see B-1.1), however, this is not done using one acetylcholine concentration; instead, every concentration of the test substance is combined with an acetylcholine 8-point dose-response curve. […] The M2-mediated GIRK1/4 activation or hyperpolarization is then monitored in a third measurement over a period of 60 sec in 1 sec increments. The shift in the acetylcholine dose-response curve in the presence of increasing concentrations of the test substance is analysed and quantified by means of GraphPad PRISM (Allosteric EC50 shift). […] Positive cooperativity is the hallmark of a positive allosteric modulator. […] The greater the magnitude of the α value, the greater the extent of cooperativity between orthosteric and allosteric.

Row | pEC50 [1] | Emax [1] | Cooperativity (alpha factor) [2] | Efficiency [1] | Structure (SMILES)
1 | 8.48 | 100% | 37 | – | CC(C)(NC(=O)c1cn(-c2c(F)cc(F)cc2Cl)c2nc(N3C[C@@H](O)[C@H](O)C3)c(F)cc2c1=O)C(F)(F)F [Example 41, 1-(2-chloro-4,6-difluorophenyl)-7-[(3R,4R)-3,4-dihydroxypyrrolidin-1-yl]-6-fluoro-4-oxo-N-(1,1,1-trifluoro-2-methylpropan-2-yl)-1,4-dihydro-1,8-naphthyridine-3-carboxamide]
2 | 8.37 | – | 54 | 100% | CCC(COC(F)(F)F)NC(=O)c1cn(-c2c(F)cc(F)cc2F)c2nc(N3C[C@@H](O)[C@H](O)C3)c(F)cc2c1=O (single isomer, unassigned) [Example 32]
3 | 8.70 | 100% | 35 | – | CC(NC(=O)c1cn(-c2c(F)cc(F)cc2F)c2nc(N3CC[C@H](O)C3)c(F)cc2c1=O)C(F)(F)C(F)(F)F (single isomer, unassigned) [Example 113]
4 | 8.38 | – | 26 | 94% | O=C(N[C@@H](C1CC1)C(F)(F)F)c1cn(-c2c(F)cc(F)cc2Cl)c2nc(N3CC(CO)(CO)C3)c(F)cc2c1=O (single isomer, unassigned) [Example 71]
5 | 8.30 | 92% | 51 | – | CC[C@@H](NC(=O)c1cn(-c2c(F)cc(F)cc2F)c2nc(N3C[C@@H](O)[C@H](O)C3)c(F)cc2c1=O)C(F)(F)F [Example 36, 7-[(3R,4R)-3,4-dihydroxypyrrolidin-1-yl]-6-fluoro-4-oxo-N-[(2R)-1,1,1-trifluorobutan-2-yl]-1-(2,4,6-trifluorophenyl)-1,4-dihydro-1,8-naphthyridine-3-carboxamide]
6 | 8.08 | 88% | 39 | – | O=C(N[C@@H](C1CC1)C(F)(F)F)c1cn(-c2c(F)cc(F)cc2F)c2nc(N3CC(CO)(CO)C3)c(F)cc2c1=O [Example 84, 7-[3,3-Bis(hydroxymethyl)azetidin-1-yl]-N-[(1S)-1-cyclopropyl-2,2,2-trifluoroethyl]-6-fluoro-4-oxo-1-(2,4,6-trifluorophenyl)-1,4-dihydro-1,8-naphthyridine-3-carboxamide]
7 | 8.26 | 100% | 49 | – | CC(C)C[C@@H](NC(=O)c1cn(-c2c(F)cc(F)cc2F)c2nc(N3C[C@@H](O)[C@H](O)C3)c(F)cc2c1=O)C(F)(F)F [Example 14, 7-[(3R,45)-3,4-dihydroxypyrrolidin-1-yl]-6-fluoro-4-oxo-N-[(2R)-1,1,1-trifluoro-4-methylpentan-2-yl]-1-(2,4,6-trifluorophenyl)-1,4-dihydro-1,8-naphthyridine-3-carboxamide]
8 | 7.84 | 98% | 50 | – | CC[C@H](NC(=O)c1cn(-c2c(F)cc(F)cc2F)c2nc(N3C[C@@H](O)[C@@H](O)C3)c(F)cc2c1=O)C(F)(F)F [Example 98, 7-[(3R,4S)-3,4-Dihydroxypyrrolidin-1-yl]-6-fluoro-4-oxo-N-[(2S)-1,1,1-trifluorobutan-2-yl]-1-(2,4,6-trifluorophenyl)-1,4-dihydro-1,8-naphthyridine-3-carboxamide]
9 | 8.87 | 100% | 57 | – | CC(C)C(NC(=O)c1cn(-c2c(F)cc(F)cc2F)c2nc(N3C[C@@H](O)[C@H](O)C3)c(F)cc2c1=O)C(C)C [Example 24, 7-[(3R,4R)-3,4-dihydroxypyrrolidin-1-yl]-N-(2,4-dimethylpentan-3-yl)-6-fluoro-4-oxo-1-(2,4,6-trifluorophenyl)-1,4-dihydro-1,8-naphthyridine-3-carboxamide]
10 | 8.42 | – | 34 | 99% | CC(NC(=O)c1cn(-c2c(F)cc(F)cc2F)c2nc(N3CC(CO)(CO)C3)c(F)cc2c1=O)C(F)(F)C(F)(F)F (racemic) [Example 169, 7-[3,3-Bis(hydroxymethyl)azetidin-1-yl]-6-fluoro-4-oxo-N-[3,3,4,4,4-pentafluorobutan-2-yl]-1-(2,4,6-trifluorophenyl)-1,4-dihydro-1,8-naphthyridine-3-carboxamide]
11 | 8.38 | 100% | 37 | – | CCC(COC(F)(F)F)NC(=O)c1cn(-c2c(F)cc(F)cc2F)c2nc(N3C[C@@H](O)[C@H](O)C3)c(F)cc2c1=O (single isomer, unassigned) [Example 31]
12 | – | 100% | 34 | – | CC(NC(=O)c1cn(-c2c(F)cc(F)cc2F)c2nc(N3C[C@@H](O)[C@@H](O)C3)c(F)cc2c1=O)C(F)(F)C(F)(F)F (single isomer, unassigned) [Example 94]
13 | 8.60 | – | 39 | 99% | CCC(NC(=O)c1cn(-c2c(F)cc(F)cc2F)c2nc(N3CC(CO)(CO)C3)c(F)cc2c1=O)C(F)(F)C(F)(F)F (racemic) [Example 173, 7-[3,3-Bis(hydroxymethyl)azetidin-1-yl]-6-fluoro-4-oxo-N-[1,1,1,2,2-pentafluoropentan-3-yl]-1-(2,4,6-trifluorophenyl)-1,4-dihydro-1,8-naphthyridine-3-carboxamide]
14 | 8.17 | – | 31 | 93% | C[C@H](NC(=O)c1cn(-c2c(F)cc(F)cc2Cl)c2nc(N3C[C@@H](O)[C@H](O)C3)c(F)cc2c1=O)C(F)(F)F (single isomer, unassigned) [Example 226]
15 | 8.70 | 100% | 28 | – | O=C(NC(C1CC1)(C1CC1)C(F)(F)C(F)(F)F)c1cn(-c2c(F)cc(F)cc2F)c2nc(N3CC(CO)(CO)C3)c(F)cc2c1=O [Example 212, 7-[3,3-bis(hydroxymethyl)azetidin-1-yl]-N-(1,1-dicyclopropyl-2,2,3,3,3-pentafluoropropyl)-6-fluoro-4-oxo-1-(2,4,6-trifluorophenyl)-1,4-dihydro-1,8-naphthyridine-3-carboxamide]
16 | 8.35 | 90% | 24 | – | CC(NC(=O)c1cn(-c2c(F)cc(F)cc2F)c2nc(N3CCC[C@@H]3CO)c(F)cc2c1=O)C(F)(F)C(F)(F)F (single isomer, unassigned) [Example 184]
17 | 8.39 | 95% | 45 | – | CC(C)(NC(=O)c1cn(-c2c(F)cc(F)cc2F)c2nc(N3C[C@@H](O)[C@H](O)C3)c(F)cc2c1=O)C1CC1 [Example 25, N-(2-cyclopropylpropan-2-yl)-7-[(3R,4R)-3,4-dihydroxypyrrolidin-1-yl]-6-fluoro-4-oxo-1-(2,4,6-trifluorophenyl)-1,4-dihydro-1,8-naphthyridine-3-carboxamide]
18 | 7.52 | 89% | 14 | – | CCN(CC(C)O)c1nc2c(cc1F)c(=O)c(C(=O)N[C@@H](C1CC1)C(F)(F)F)cn2-c1c(F)cc(F)cc1F (mixture of isomers) [Example 65, N-[(1S)-1-Cyclopropyl-2,2,2-trifluoroethyl]-7-[ethyl(2-hydroxypropyl)amino]-6-fluoro-4-oxo-1-(2,4,6-trifluorophenyl)-1,4-dihydro-1,8-naphthyridine-3-carboxamide]

From patent US11472803B2, “7-substituted 1-aryl-naphthyridine-3-carboxylic acid amides and use thereof” (Bayer Aktiengesellschaft, priority 2016, dated 2022)
